Where “and” joins values, the source holds several entries; their conditions need not be identical. Identical values can stand only once. Calls of active or inactive are those of the source.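 How the source made its calls: active means compounds giving half or more protection of infected cells from virus-caused growth loss, again on retest; inactive means the rest.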
Test system: CEM cells HIV-1 protection, formazan growth assay
Assay: NCI AIDS Antiviral Assay
Details: for IC50: measured here: growth of uninfected CEM cells
How it was run: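 CEM (human) cells, HIV-1 infected vs uninfected, 5-point dosing, formazan growth read-out. Retest threshold 50% protection.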

Structure (SMILES): CC(CO)/[N+]([O-])=N/O (configuration not stated)
- EC50: > 479 µM

Structure (SMILES): O=C1OCC2(CO)SC(c3ccccc3)NC12 (configuration not stated)
- EC50: > 525 µM
- IC50: > 525 µM

Structure (SMILES): O=[N+]([O-])c1ccc(C2=Nn3c(nnc3-c3ccccc3)SC2)o1
- outcome: inactive

Structure (SMILES): Nc1ccc(S(=O)(=O)N/N=C/c2ccco2)cc1
- EC50: > 676 µM
- IC50: > 676 µM

Structure (SMILES): Cc1cc(C)c2nc3c(c(C(O)C4CCCCN4)c2c1)CC/C3=C\c1ccc(Cl)cc1 (configuration not stated)
- EC50: > 22.9 µM
- IC50: > 22.9 µM

Structure (SMILES): COC(C)(C)C1(O)CCC(C)CC1=O (configuration not stated)
- EC50: > 100 µM
- IC50: > 100 µM

Structure (SMILES): Clc1ccc2c(c1)[nH]c1c2nc2ccccn21
- EC50: > 30.2 µM
- IC50: 29.5 µM and > 25.7 µM

Structure (SMILES): CC(C)/C(Cl)=N/OC(NC(=O)Nc1ccc(Cl)c(Cl)c1)(C(F)(F)F)C(F)(F)F
- outcome: inactive

Structure (SMILES): CCOc1cnn(-c2ccccc2)c(=O)c1SCc1ccccc1
- EC50: > 77.6 µM
- IC50: 56.2 µM

Structure (SMILES): Cc1ccsc1/C=N/Nc1ncccn1
- EC50: > 200 µM
- IC50: > 200 µM

Structure (SMILES): O=S(=O)(O)c1cc(O)c2ccc3c(S(=O)(=O)O)cc(S(=O)(=O)O)c4ccc1c2c34
- outcome: inactive

Structure (SMILES): Oc1c(CN2CCOCC2)ccc2ccccc12
- EC50: > 200 µM
- IC50: 191 µM

Structure (SMILES): CN=C(NC)N(C)c1nc(=[N+](C)C)ss1
- outcome: inactive

Structure (SMILES): CCCCC[C@@H]1CCC[C@H]2NC(CCCCC3OCCO3)CC[C@@H]12 (some centres not stated)
- outcome: inactive

Structure (SMILES): CCOC(=O)C1(CO)CSCCSC1
- EC50: > 1050 µM
- IC50: > 1050 µM

Structure (SMILES): CN(C)CCN1C(=O)C2C3CCC(C)(O3)C2C1=O (configuration not stated)
- EC50: > 200 µM
- IC50: > 200 µM

Structure (SMILES): CC1=C(C)CC(C#N)(C#N)C(C#N)(C#N)C1
- EC50: > 200 µM
- IC50: 19.1 µM

Structure (SMILES): Cc1cn(C2CC(C/C=[N+](\[O-])CC3OC(n4cc(C)c(=O)[nH]c4=O)CC3O[Si](C)(C)C(C)(C)C)C(CO[Si](C)(C)C(C)(C)C)O2)c(=O)[nH]c1=O (configuration not stated)
- EC50: > 200 µM
- IC50: 36.3 µM

Structure (SMILES): COc1ccc(C2CC(=O)c3c(cc(OC)c(OC)c3OC)O2)cc1 (configuration not stated)
- EC50: > 200 µM
- IC50: 20.9 µM

Structure (SMILES): O=C(CC1(O)C(=O)Nc2c(Cl)cc(Cl)cc21)c1ccc([N+](=O)[O-])cc1 (configuration not stated)
- EC50: > 178 µM
- IC50: 93.3 µM

Structure (SMILES): CN(C(=O)c1ccccc1S)c1ccccc1
- EC50: > 200 µM
- IC50: 20.4 µM

Structure (SMILES): COC(=O)c1c(NC(=O)C(C)C)n[nH]c1NC(=O)C(C)C
- outcome: inactive

Structure (SMILES): O=C(O)c1ccc2c[n+]3ccccc3cc2c1
- EC50: > 427 µM
- IC50: > 427 µM

Structure (SMILES): COc1ccc2c(=O)c([Se]c3coc4cc(OC)ccc4c3=O)coc2c1
- EC50: > 60.3 µM
- IC50: > 60.3 µM

Structure (SMILES): COc1cc2c(c(O)c1OC)C(=O)[C@@H]1CCC(=O)N1C2c1ccccc1 (some centres not stated)
- EC50: > 200 µM
- IC50: 83.2 µM

Structure (SMILES): CN1CCN(c2n[nH]c(=O)c3c2nnn3C2CCCCC2)CC1
- EC50: > 200 µM
- IC50: > 200 µM

Structure (SMILES): COc1ccc2c(=O)c3ccccc3oc2c1
- EC50: > 200 µM
- IC50: 97.7 µM

Structure (SMILES): CC1=CSC(O)(c2ccc(Cl)cc2)c2noc(=O)n21 (configuration not stated)
- EC50: > 200 µM
- IC50: 112 µM

Structure (SMILES): CC1=C(c2cc(C(=O)Nc3cc(C)ccc3C)nc(N)n2)Sc2ccccc2N1
- EC50: > 12.9 µM
- IC50: > 12.9 µM

Structure (SMILES): ON=C(CC(O)(C(F)(F)Cl)C(F)(F)Cl)CC(O)(C(F)(F)Cl)C(F)(F)Cl
- EC50: > 200 µM
- IC50: 8.71 µM

Structure (SMILES): C1=Cc2nc1c(-c1ccccc1)c1ccc([n-]1)c(-c1ccccc1)c1nc(c(-c3ccncc3)c3ccc([n-]3)c2-c2ccccc2)C=C1.C1=Cc2nc1c(-c1ccccc1)c1ccc([n-]1)c(-c1ccccc1)c1nc(c(-c3ccncc3)c3ccc([n-]3)c2-c2ccccc2)C=C1.C1=Cc2nc1c(-c1ccccc1)c1ccc([n-]1)c(-c1ccccc1)c1nc(c(-c3ccncc3)c3ccc([n-]3)c2-c2ccccc2)C=C1.C1=Cc2nc1c(-c1ccccc1)c1ccc([n-]1)c(-c1ccccc1)c1nc(c(-c3ccncc3)c3ccc([n-]3)c2-c2ccccc2)C=C1.O=S(=O)([O-])C(F)(F)F.[Pt+2].[Zn+2].[Zn+2].[Zn+2].[Zn+2]
- EC50: > 25.1 µM
- IC50: > 25.1 µM

Structure (SMILES): CC(=O)Nc1cc(N=Nc2ccc(N=Nc3ccc(NC(=O)c4ccc(N)cc4)cc3C)cc2C)c(S(=O)(=O)O)cc1N=Nc1cccc(C(=O)O)c1
- EC50: 20.9 µM
- IC50: 170 µM

Structure (SMILES): COc1cc(/C=C2\CCc3ccccc3C2=O)ccc1O
- EC50: > 200 µM
- IC50: 9.33 µM

Structure (SMILES): C(=C\C(SCc1ccccc1)SCc1ccccc1)/c1ccccc1
- EC50: > 200 µM
- IC50: > 200 µM

Structure (SMILES): CC(C)N(C(=O)c1ccc(NCc2cc(O)ccc2O)cc1)C(C)C
- EC50: > 200 µM
- IC50: 12.6 µM

Structure (SMILES): Cn1cnc([N+](=O)[O-])c1Sc1nnc(C(F)(F)F)n1C
- EC50: > 813 µM
- IC50: 4.27 µM

Structure (SMILES): CN(CCSSCCN(C)C(N)=S)C(N)=S
- EC50: > 200 µM
- IC50: > 200 µM

Structure (SMILES): CC(=O)C1CCN(Cc2ccccc2)C1 (configuration not stated)
- outcome: inactive

Structure (SMILES): Cc1cc(N=Nc2ccc(NC(=O)c3ccc(NC(=O)c4ccccc4)cc3)c3ccc(S(=O)(=O)O)cc23)ccc1N=Nc1ccc2c(O)cc(S(=O)(=O)O)cc2c1
- EC50: > 50.1 µM
- IC50: > 50.1 µM

Structure (SMILES): CCOC(=O)CCC1(C(=O)OCC)CCCCC1=O (configuration not stated)
- EC50: > 251 µM
- IC50: > 251 µM

Structure (SMILES): O=c1c(C=Nc2ccc([N+](=O)[O-])cc2)c(O)n(-c2ccccc2)c(=O)n1-c1ccccc1
- EC50: > 200 µM
- IC50: 21.4 µM

Structure (SMILES): CC1(C)CC(=O)C(Cc2ccccc2)(Cc2ccccc2)C(=O)C1
- outcome: inactive

Structure (SMILES): N#CC(C#N)=CNC(N)=S
- EC50: > 200 µM
- IC50: > 200 µM

Structure (SMILES): N#COc1ccc(Oc2ccc(OC#N)cc2)cc1
- EC50: > 141 µM
- IC50: 45.7 µM

Structure (SMILES): Cc1c(Cc2ccccc2)n(COCCCO)c(=O)[nH]c1=O
- EC50: 138 µM
- IC50: > 200 µM

Structure (SMILES): CC(=O)Oc1ccc2cc(-c3ccccc3OC(C)=O)c(=O)oc2c1
- EC50: > 200 µM
- IC50: 74.1 µM

Structure (SMILES): O=Cc1ccc2c(c1)C(O)NC(=O)O2 (configuration not stated)
- EC50: 28.2 µM
- IC50: 72.4 µM

Structure (SMILES): Cc1nn2c(c1C#N)NNc1c-2sc(=N)nnc1=O
- EC50: 31.6 µM
- IC50: 43.7 µM

Structure (SMILES): CC(C)(C)C1CCC2c3c([nH]c4ccccc34)C3C(=O)N(c4cc(Br)cc(Br)c4)C(=O)C3C2C1 (configuration not stated)
- EC50: > 200 µM
- IC50: 12.6 µM

Structure (SMILES): Cc1ccc(C2=NNc3n[nH]c(=S)n3N2)cc1
- EC50: > 75.9 µM
- IC50: > 75.9 µM

Structure (SMILES): CC(C)(C)OC1=C(OC(C)(C)C)C(O)(c2ccc(Cl)cc2)C1=O (configuration not stated)
- outcome: inactive

Structure (SMILES): COc1cc2nc(CC(O)c3nc4cc(OC)c(OC)cc4[nH]3)[nH]c2cc1OC (configuration not stated)
- EC50: > 200 µM
- IC50: 17.4 µM

Structure (SMILES): C=CCSSSCC=C
- EC50: > 120 µM
- IC50: 63.1 µM

Structure (SMILES): Cc1ccc(/C=C2\CN(C)CC3C2=NC(=S)NC3c2ccc(C)cc2)cc1 (configuration not stated)
- EC50: > 200 µM
- IC50: 24.5 µM

Structure (SMILES): Nc1nccc(NCC2(CO)CC(OCc3ccccc3)C2)n1 (configuration not stated)
- EC50: > 200 µM
- IC50: > 200 µM

Structure (SMILES): CC1=C(C(=O)NCc2ccccc2)C(c2ccccc2[N+](=O)[O-])C(C(=O)NCc2ccccc2)=C(C)N1
- EC50: > 7.59 µM
- IC50: > 7.59 µM

Structure (SMILES): Cc1cc(S(=O)(=O)Nc2nc(N)n(-c3ccccc3)n2)c(S)cc1Cl
- EC50: 129 µM
- IC50: 468 µM

Structure (SMILES): COc1ccc(Cc2cc(Cc3ccc(OC)cc3)cc(Cc3ccc(OC)cc3)c2)cc1
- EC50: > 100 µM
- IC50: > 100 µM

Structure (SMILES): CCOC(=O)/C=C/[C@@H](CC)O[Si](C(C)C)(C(C)C)C(C)C
- EC50: > 200 µM
- IC50: > 200 µM

Structure (SMILES): O=NN/C(=C1\Nc2ccc([N+](=O)[O-])cc2NC1=O)C(O)c1ccc([N+](=O)[O-])cc1 (configuration not stated)
- EC50: > 234 µM
- IC50: 191 µM

Structure (SMILES): CCc1ccc(/C=C/C(=O)C2CN(CC)CCC2(O)/C=C/c2ccc(CC)cc2)cc1 (configuration not stated)
- EC50: > 200 µM
- IC50: 4.37 µM

Source: PubChem BioAssay AID179 (DTP/NCI, 2004)
